The molecules below were run against human 5-HT2C(VSV) (Homo sapiens, UniProt P28335, I156V/I160V/N158S) (assay: cell-based).
Sequence of human 5-HT2C(VSV) (P28335 33-458 I156V/N158S/I160V limits assumed): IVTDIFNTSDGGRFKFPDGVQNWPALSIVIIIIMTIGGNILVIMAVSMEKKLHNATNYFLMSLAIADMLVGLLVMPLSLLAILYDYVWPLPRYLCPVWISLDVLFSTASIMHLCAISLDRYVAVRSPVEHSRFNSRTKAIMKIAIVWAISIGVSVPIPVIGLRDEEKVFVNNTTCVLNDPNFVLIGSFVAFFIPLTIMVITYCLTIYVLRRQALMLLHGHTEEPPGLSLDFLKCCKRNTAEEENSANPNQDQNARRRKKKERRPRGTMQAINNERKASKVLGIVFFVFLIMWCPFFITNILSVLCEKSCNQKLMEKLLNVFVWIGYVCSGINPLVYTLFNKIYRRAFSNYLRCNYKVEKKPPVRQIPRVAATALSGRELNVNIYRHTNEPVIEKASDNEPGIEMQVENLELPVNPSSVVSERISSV

`CNCCc1cn(C)c2cc(F)cc(OCc3cccc(Cl)c3)c12` [33-46, 2-(4-(3-chlorobenzyloxy)-6-fluoro-1-methyl-1H-indol-3-yl)-N-methylethanamine] and `CNCCc1cn(C)c2cc(F)cc(OCc3ccc(Cl)cc3)c12` [33-45, 2-(4-(4-chlorobenzyloxy)-6-fluoro-1-methyl-1H-indol-3-yl)-N-methylethanamine] fall in the same range of EC50: 0.001 to 0.5 µM for the first, 0.001 to 0.5 µM for the second.

`COc1ccc(Nc2ccccc2)c2c1c(CCN(C)C)cn2C` [6-12, 3-(2-dimethylaminoethyl)-4-methoxy-1-methyl-N-phenyl-1H-indol-7-amine] and `COc1ccc(-c2ccccc2)c2c1c(CCN(C)C)cn2C` [6-6, 2-(4-methoxy-1-methyl-7-phenyl-1H-indol-3-yl)-N,N-dimethylethanamine] fall in the same range of EC50: 0.001 to 0.5 µM for the first, 0.001 to 0.5 µM for the second.

First: CCn1cc(C2CCCNC2)c2c(O)cc(F)cc21 (stereo not drawn) [38-4, 1-ethyl-6-fluoro-3-(piperidin-3-yl)-1H-indol-4-ol]
Second: CCn1cc(C2CCCN(C)C2)c2c(O)cc(F)cc21 (stereo not drawn) [38-6, 1-ethyl-6-fluoro-3-(1-methylpiperidin-3-yl)-1H-indol-4-ol]
The EC50 of the first is lower: 0.001 to 0.5 µM for the first, 0.5 to 10 µM for the second. The first is the more potent here.

`CCOc1c(F)ccc2c1c(CCNC1CCc3ccccc31)cn2C` (stereo not drawn) [30-19, N-(2-(4-ethoxy-5-fluoro-1-methyl-1H-indol-3-yl)ethyl)-2,3-dihydro-1H-inden-1-amine] and `CNCCc1cn(C)c2ccc(F)c(OCc3ccccc3Cl)c12` [33-23, 2-(4-(2-chlorobenzyloxy)-5-fluoro-1-methyl-1H-indol-3-yl)-N-methylethanamine] fall in the same range of EC50: 0.001 to 0.5 µM for the first, 0.001 to 0.5 µM for the second.

`COc1c(F)ccc2c1c(CCNC(C)c1ccccc1)cn2C` (stereo not drawn) [34-10, 2-(5-fluoro-4-methoxy-1-methyl-1H-indol-3-yl)-N-(1-phenylethyl)ethanamine] and `CNCCc1cn(C)c2ccc(F)c(OCCc3ccccc3)c12` [33-26, 2-(5-fluoro-1-methyl-4-phenethoxy-1H-indol-3-yl)-N-methylethanamine] fall in the same range of EC50: 0.001 to 0.5 µM for the first, 0.001 to 0.5 µM for the second.

`CN(C)CCc1cn(C)c2ccc(F)c(OCCc3ccccc3)c12` [18-2, 2-(5-fluoro-1-methyl-4-phenethoxy-1H-indol-3-yl)-N,N-dimethylethanamine] and `CNCCc1cn(C)c2ccc(F)c(OCCOc3ccccc3)c12` [33-14, 2-(5-fluoro-1-methyl-4-(2-phenoxyethoxy)-1H-indol-3-yl)-N-methylethanamine] fall in the same range of EC50: 0.001 to 0.5 µM for the first, 0.001 to 0.5 µM for the second.

`CCn1cc(CCN(C)C)c2c(OC)c(CCCN)cc(F)c21` [28-4, 3-(3-(2-(dimethylamino)ethyl)-1-ethyl-7-fluoro-4-methoxy-1H-indol-5-yl)propan-1-amine] and `CCn1cc(CCN(C)C)c2c(OC)c(CCCO)cc(F)c21` [27-3, 3-(3-(2-(dimethylamino)ethyl)-1-ethyl-7-fluoro-4-methoxy-1H-indol-5-yl)propan-1-ol] fall in the same range of EC50: 0.001 to 0.5 µM for the first, 0.001 to 0.5 µM for the second.

`CCn1cc(CCNCc2cccc(Cl)c2)c2c(OCc3ccccc3)cc(F)cc21` [31-9, 2-(4-(benzyloxy)-1-ethyl-6-fluoro-1H-indol-3-yl)-N-(3-chlorobenzyl)ethanamine] and `CCn1cc(CCNCc2ccccc2)c2c(OCc3ccccc3)cc(F)cc21` [26-7, N-benzyl-2-(4-(benzyloxy)-1-ethyl-6-fluoro-1H-indol-3-yl)ethanamine] fall in the same range of EC50: 0.5 to 10 µM for the first, 0.5 to 10 µM for the second.

First: CCn1cc(CCNCc2ccccc2)c2c(OC)cc(F)cc21 [39-4, N-benzyl-2-(1-ethyl-6-fluoro-4-methoxy-1H-indol-3-yl)ethanamine]
Second: CCn1cc(CCN(C)C)c2c(Oc3ccccc3)cc(F)cc21 [32-2, 2-(1-ethyl-6-fluoro-4-phenoxy-1H-indol-3-yl)-N,N-dimethylethanamine]
The EC50 of the first is lower: 0.001 to 0.5 µM for the first, 0.5 to 10 µM for the second.

`CNCCc1cn(C)c2ccc(F)c(OCCc3ccc(F)cc3)c12` [33-28, 2-(5-fluoro-4-(4-fluorophenethoxy)-1-methyl-1H-indol-3-yl)-N-methylethanamine] and `CNCCc1cn(C)c2ccc(F)c(OCc3ccccc3C)c12` [33-22, 2-(5-fluoro-1-methyl-4-(2-methylbenzyloxy)-1H-indol-3-yl)-N-methylethanamine] fall in the same range of EC50: 0.001 to 0.5 µM for the first, 0.001 to 0.5 µM for the second.

`COc1c(F)ccc2c1c(CCN1CCCC1C(N)=O)cn2C` (stereo not drawn) [17-9, 1-(2-(5-fluoro-4-methoxy-1-methyl-1H-indol-3-yl)ethyl)pyrrolidine-2-carboxamide] and `CCOc1c(F)ccc2c1c(CCN1CCCC1CO)cn2C` (stereo not drawn) [30-24, (1-(2-(4-ethoxy-5-fluoro-1-methyl-1H-indol-3-yl)ethyl)pyrrolidin-2-yl)methanol] fall in the same range of EC50: 0.5 to 10 µM for the first, 0.5 to 10 µM for the second.

Compared with `CCn1cc(CCN2CCNCC2)c2c(O)cc(F)cc21` [11-15, 1-ethyl-6-fluoro-3-(2-(piperazin-1-yl)ethyl)-1H-indol-4-ol], `CCn1cc(CCN2CCOCC2)c2c(O)cc(F)cc21` [11-5, 1-ethyl-6-fluoro-3-(2-morpholinoethyl)-1H-indol-4-ol] is lower in EC50: 0.5 to 10 µM for the first, 0.001 to 0.5 µM for the second. The second is the more potent here.

First: CCn1cc(CCN(C)C)c2c(OCc3ccncc3)cc(F)cc21 [1-18b, 2-(1-ethyl-6-fluoro-4-(pyridin-4-ylmethoxy)-1H-indol-3-yl)-N,N-dimethylethanamine]
Second: CCn1cc(CCN(C)C)c2c(OCc3ccsc3)cc(F)cc21 [1-19b, 2-(1-ethyl-6-fluoro-4-(thiophen-3-ylmethoxy)-1H-indol-3-yl)-N,N-dimethylethanamine]
The EC50 of the first is higher: 0.5 to 10 µM for the first, 0.001 to 0.5 µM for the second.

`CCOc1c(F)ccc2c1c(CCNCCc1ccccn1)cn2C` [30-27, 2-(4-ethoxy-5-fluoro-1-methyl-1H-indol-3-yl)-N-(2-(pyridin-2-yl)ethyl)ethanamine] and `CCOc1c(F)ccc2c1c(CCNCc1cccs1)cn2C` [30-28, 2-(4-ethoxy-5-fluoro-1-methyl-1H-indol-3-yl)-N-(thiophen-2-ylmethyl)ethanamine] fall in the same range of EC50: 0.001 to 0.5 µM for the first, 0.001 to 0.5 µM for the second.

First: CCn1cc(CCN(C)CCc2cn(CC)c3cc(F)cc(OC)c23)c2c(OC)cc(F)cc21 [39-5, 2-(1-ethyl-6-fluoro-4-methoxy-1H-indol-3-yl)-N-(2-(1-ethyl-6-fluoro-4-methoxy-1H-indol-3-yl)ethyl)-N-methylethanamine]
Second: CCn1cc(CCN(C)C)c2c(OC)cc(-c3ccccc3)cc21 [36-6, 2-(1-ethyl-4-methoxy-6-phenyl-1H-indol-3-yl)-N,N-dimethylethanamine]
The EC50 of the first is lower: 0.001 to 0.5 µM for the first, 0.5 to 10 µM for the second.

`CCCn1cc(CCN)c2c(OCc3ccc(Cl)cc3)c(F)ccc21` [18-3, 2-(4-(4-chlorobenzyloxy)-5-fluoro-1-propyl-1H-indol-3-yl)ethanamine] and `CNCCc1cn(C)c2ccc(F)c(OCc3cccc4cccnc34)c12` [33-13, 2-(5-fluoro-1-methyl-4-(quinolin-8-ylmethoxy)-1H-indol-3-yl)-N-methylethanamine] cannot be ordered by EC50: < 10 µM for the first, 0.001 to 0.5 µM for the second.

First: COc1c(F)ccc2c1c(CCNc1cccc(N3CCN(C)CC3)c1)cn2C [17-18, N-(2-(5-fluoro-4-methoxy-1-methyl-1H-indol-3-yl)ethyl)-3-(4-methylpiperazin-1-yl)aniline]
Second: CCn1cc(CCN2Cc3ccccc3C2)c2c(O)cc(F)cc21 [31-4, 1-ethyl-6-fluoro-3-(2-(isoindolin-2-yl)ethyl)-1H-indol-4-ol]
The EC50 of the first is lower: 0.001 to 0.5 µM for the first, 0.5 to 10 µM for the second. The first is the more potent here.

First: CCn1cc(CCN2CCC(F)(F)C2)c2c(O)cc(F)cc21 [11-14, 3-(2-(3,3-difluoropyrrolidin-1-yl)ethyl)-1-ethyl-6-fluoro-1H-indol-4-ol]
Second: CCn1cc(CCNC(c2ccccc2)c2ccccc2)c2c(O)cc(F)cc21 [31-10, 3-(2-(benzhydrylamino)ethyl)-1-ethyl-6-fluoro-1H-indol-4-ol]
The EC50 of the first is higher: 0.5 to 10 µM for the first, 0.001 to 0.5 µM for the second.

— patent US8912220B2 (priority 2009, dated 2014)
